Data taken from PMC7948796, “Mammalian-like type II glutaminyl cyclases in Porphyromonas gingivalis and other oral pathogenic bacteria as targets for treatment of periodontitis” (The Journal of Biological Chemistry, 2021).
Where two headings read alike, the source gives them in different places.

How the values were obtained:
PiQC [1] = target: T1, PiQC (Prevotella intermedia, UniProt A0AAD1F671); type: biochemical; conditions: for Effect of chelator on QC activity: PiQC, Fig. S2
Procedure: (§1) To test whether QC is a metalloenzyme, the turnover of H-Gln-AMC at a concentration corresponding to 0.5 KM was investigated in the presence of the metal chelators 1,10- phenanthroline, dipicolinic acid, and EDTA. The fluorometric activity assay was performed as described above, except for the presence of 1% (v/v) DMSO in the case of 1,10-phenanthroline or dipicolinic acid. Finally, the residual QC activity was determined at steady state, whereas QC without chelators and ± 1% DMSO served as positive control.
(§2) 250 µM H-Gln-AMC and increasing chelator
(§3) concentrations were used to investigate the inhibitory effect on QC activity. Bars indicate residual
(§4) QC activity following initiation of the reaction by adding 5 nM QC (red: PgQC; green: PiQC; blue:
(§5) TfQC). All measurements were performed at 30°C as described in the text.
(§6) (1 picture or pasted object on this page, not shown here)

TfQC [2] = target: T2, TfQC (Tannerella forsythia, UniProt G8UMP8); type: biochemical; conditions: Fig. S2
Procedure: as §1, §2, §3, §4, §5, §6

PgQC [3] = target: T3, PgQC (Porphyromonas gingivalis, UniProt Q7MT37); experiment: Residual QC activity in presence of metal chelators; type: biochemical; set-up: His-tag (pET28a, thrombin-cleavable) (N, cleaved yes); made in house; host or cells: E. coli Rosetta(DE3)pLysS; conditions: Fig. S2
Procedure: as §1
Supplementary Figure 2: Inhibition of bacteroidal QC activity by metal chelators: ( A) ED TA ,
(B) dipicolinic acid and (C) 1,10-phenantroline. 250 µM H-Gln-AMC and increasing chelator
as §3, §4, §5, §6

PiQC [4] = target: T1, PiQC; experiment: QC inhibition assay with fluorogenic substrate H-Gln-AMC (Ki); type: biochemical; conditions: 1% DMSO, pH 8.0, 30 °C
Procedure: (§7) Inhibitory constants were determined using concentrations of H-Gln-AMC varying from 1/4 KM to 2 KM and a final concentration of bacterial QC in a range between 25 nM and 50 nM. Progress curves were fitted to the general equation for competitive inhibition.

TfQC [5] = target: T2, TfQC; experiment: as above; type: biochemical; conditions: 1% DMSO, pH 8.0, 30 °C
Procedure: as §7

PgQC [6] = target: T3, PgQC; experiment: as above; type: biochemical; set-up: His-tag (pET28a, thrombin-cleavable) (N, cleaved yes); made in house; host or cells: E. coli Rosetta(DE3)pLysS
Procedure: as §7

HsQC [7] = target: T4, HsQC (Homo sapiens, UniProt Q16769); experiment: as above; type: biochemical
HsQC [8] = target: T4, HsQC; set-up: method as in Schilling et al. ([44]); conditions: ref Schilling et al. ([44]); cited from earlier work
TfQC [9] = target: T2, TfQC; experiment: Kinetics of cyclization of H-Gln-AMC; type: biochemical
Procedure: (§8) QC activity was evaluated using the fluorogenic substrate H-Gln-AMC as described previously ([43]). Measurements were performed at different concentrations of fluorogenic substrate and 0.5 U pyroglutaminyl aminopeptidase in 50 mM Tris-HCl, 50 mM NaCl at pH 8.0. After 10 min incubation time at 30 °C, the reaction was initiated by addition of approximately 50 nM QC to a final volume of 125 μl reaction mixture. QC activity was calculated from a standard curve of the fluorophore AMC at assay conditions using excitation/emission wavelengths of 380/460 nm. All measurements were carried out in 96-well microtiter plates (Fisher Scientific) at 30 °C using the FluoStar Optima (BMG Labtech). All kinetic data were evaluated using GraFit software (Version 7, Erithacus software Ltd).
(§9) Supplementary Figure 1: QC activity measurements for bacteroidal QC cataly zed cyclization of the fluorogenic substrate H-Gln-AMC. (A) v/S-characteristics and Lineweaver-Burk plots for PgQC (red circles), TfQC (green triangles) and PiQC (blue squares). QC activity measurements were performed in 50 mM Tris-HCl, pH 8.0 and 50 mM NaCl at 30°C. Kinetic data were evaluated using GraFit software (Version 7, Erithacus software Ltd., Horley, UK). (B) pH dependence of PgQC, TfQC, and PiQC activities; colors and sy mbols as in (A). The specificity constants kcat/KM were determined under first-order rate law conditions with substrate concentrations of 1/10 KM.
(§10) Measurements were carried out at 30°C in buffer consisting of 0.1 M Tris-HCl, 0.05 MES, 0.05 mM acetic acid and 0.05 mM NaCl.. […]

PgQC [10] = target: T3, PgQC
Procedure: as §8, §9, §10

PiQC [11] = target: T1, PiQC; type: biochemical
Procedure: as §8, §9, §10

[12] = H-Gln-AMC substrate, 1% DMSO, pH 8.0, 30 °C, read-out: Inhibition of QC (Ki) PgQC

T3 sequence (Q7MT37 entry or part of it): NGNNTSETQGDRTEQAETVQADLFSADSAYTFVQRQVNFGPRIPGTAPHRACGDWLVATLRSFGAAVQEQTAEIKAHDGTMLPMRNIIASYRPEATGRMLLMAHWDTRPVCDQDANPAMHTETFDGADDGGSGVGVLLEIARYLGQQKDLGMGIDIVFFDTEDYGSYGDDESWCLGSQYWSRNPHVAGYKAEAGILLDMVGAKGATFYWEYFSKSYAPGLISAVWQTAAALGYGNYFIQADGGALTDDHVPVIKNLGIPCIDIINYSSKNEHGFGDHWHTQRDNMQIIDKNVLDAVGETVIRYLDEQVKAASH
T2 sequence (G8UMP8 entry or part of it): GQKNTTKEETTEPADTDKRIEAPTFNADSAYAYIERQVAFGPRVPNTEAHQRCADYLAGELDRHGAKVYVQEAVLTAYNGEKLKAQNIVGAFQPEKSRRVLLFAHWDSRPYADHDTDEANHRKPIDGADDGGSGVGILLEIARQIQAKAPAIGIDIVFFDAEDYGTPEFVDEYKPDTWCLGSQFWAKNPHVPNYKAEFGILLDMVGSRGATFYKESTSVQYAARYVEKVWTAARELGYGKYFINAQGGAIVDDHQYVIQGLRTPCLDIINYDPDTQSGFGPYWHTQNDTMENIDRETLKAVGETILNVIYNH
T4 sequence (Q16769 29-361): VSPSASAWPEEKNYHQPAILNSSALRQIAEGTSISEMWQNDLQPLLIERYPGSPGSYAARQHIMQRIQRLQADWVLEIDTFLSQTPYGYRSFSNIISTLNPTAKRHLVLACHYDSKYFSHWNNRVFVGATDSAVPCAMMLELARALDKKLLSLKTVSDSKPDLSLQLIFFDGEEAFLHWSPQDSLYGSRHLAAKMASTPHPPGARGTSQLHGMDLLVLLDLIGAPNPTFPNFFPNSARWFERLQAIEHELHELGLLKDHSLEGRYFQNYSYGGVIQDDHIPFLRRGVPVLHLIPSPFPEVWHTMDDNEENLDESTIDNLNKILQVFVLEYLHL
T1 sequence (A0AAD1F671 24-340 limits assumed): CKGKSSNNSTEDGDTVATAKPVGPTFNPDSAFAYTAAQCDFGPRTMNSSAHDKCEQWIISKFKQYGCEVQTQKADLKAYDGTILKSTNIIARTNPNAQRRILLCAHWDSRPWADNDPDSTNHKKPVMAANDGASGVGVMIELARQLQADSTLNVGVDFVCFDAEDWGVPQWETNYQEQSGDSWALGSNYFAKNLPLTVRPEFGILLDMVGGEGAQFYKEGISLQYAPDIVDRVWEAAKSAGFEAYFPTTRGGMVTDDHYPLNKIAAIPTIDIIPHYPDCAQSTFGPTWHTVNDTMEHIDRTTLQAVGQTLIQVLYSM

SMILES	Effect of chelator on QC activity (PiQC [1])	Effect of chelator on QC activity (TfQC [2])	Effect of chelator on QC activity (PgQC [3])	Ki (PiQC [4])	Ki (TfQC [5])	Ki (PgQC [6]; [12])	other results
O=C(O)c1cccc(C(=O)O)n1 [dipicolinic acid]	strong inhibitory activity	strong inhibitory activity	strong inhibitory activity	–	–	–	–
O=C(O)CN(CCN(CC(=O)O)CC(=O)O)CC(=O)O [EDTA]	little influence	little influence	little influence	–	–	–	–
c1cnc2c(c1)ccc1cccnc12 [1,10-phenanthroline]	strong inhibitory activity	strong inhibitory activity	strong inhibitory activity	–	–	–	Sensitivity of PiQC to chelator (PiQC [1]; PiQC compared with other bacteroidal QCs): particularly sensitive
c1ccc2[nH]cnc2c1 [Benzimidazole, benzimidazole]	–	–	–	85.5 ± 4.7 µM	170 ± 1 µM	32.1 ± 1.4 µM	Ki (HsQC [7]): 318 ± 23 µM
c1ccc(Cn2ccnc2)cc1 [1-Benzylimidazol, 1-benzylimidazole]	–	–	–	13.5 ± 2.2 µM	6.45 ± 0.33 µM	10.4 ± 0.3 µM	Mode of inhibition of PgQC (PgQC [6]; Fig. S3): competitive manner; Ki (PgQC [6]; stated in text for the bacteroidal QCs in general, read-out: Estimated Ki, highest efficacy): ~10 µM; Ki (HsQC [7]): 16.8 ± 3.5 µM
Cc1cc(=O)oc2cc(NC(=O)[C@@H](N)CCC(N)=O)ccc12 [H-Gln-AMC]	–	–	–	–	–	–	Km (HsQC [8]): 54 ± 2 µM; kcat (HsQC [8]): 5.3 ± 0.1 s⁻¹; KM value higher compared with HsQC (TfQC [9]): ~20 fold; specificity constant kcat/KM relative to that of HsQC (TfQC [9]): approximately 4%; Km (TfQC [9]; pH 8.0, 30 °C): 1090 ± 30 µM; kcat (TfQC [9]; pH 8.0, 30 °C): 4.49 ± 0.22 s⁻¹; specificity constant kcat/KM relative to that of HsQC (PgQC [10]): ~9%; Km (PgQC [10]; pH 8.0, 30 °C): 510 ± 13 µM; kcat (PgQC [10]; pH 8.0, 30 °C): 4.71 ± 0.22 s⁻¹; specificity constant kcat/KM relative to that of HsQC (PiQC [11]): ~13%; Km (PiQC [11]; pH 8.0, 30 °C): 645 ± 7 µM; kcat (PiQC [11]; pH 8.0, 30 °C): 8.51 ± 0.37 s⁻¹
c1c[nH]cn1 [Imidazole, imidazole]	–	–	–	288 ± 11 µM	280 ± 15 µM	349 ± 23 µM	–
